Patent US4542137A, “Alkylaminodesoxy-1.4;3.6-dianhydrohexitol nitrates substituted by purine bases and pharmaceutical compositions” (priority 1980, dated 1985)

Test system: mongrel dogs
Experiment: circulatory pharmacological effectiveness on narcotised dogs, intravenous
Type: in vivo, dog
[1] = dog i.v. ISDN/9c 1, 1d 0.5 mg/kg, 40 min
[2] = dog i.v. ISDN/9c 1, 1d 0.5 mg/kg, 50 min
[3] = dog i.v. ISDN/9c 1, 1d 0.5 mg/kg, 60 min
[4] = dog i.v. ISDN/9c 1, 1d 0.5 mg/kg, 90 min
[5] = dog i.v. ISDN/9c 1, 1d 0.5 mg/kg, 120 min
[6] = dog i.v. ISDN/9c 1, 1d 0.5 mg/kg, 150 min
[7] = dog i.v. ISDN/9c 1, 1d 0.5 mg/kg, 180 min
[8] = dog i.v., before administration (v)

Compound: Cn1c(=O)c2c(ncn2CCCN[C@H]2CO[C@H]3[C@@H]2OC[C@@H]3O[N+](=O)[O-])n(C)c1=O [Example 1d, 5-(3-Theophyllin-7-ylpropyl)-amino-5-desoxy-1.4;3.6-dianhydro-L-iditol 2-nitrate]
- BFFem: blood flow in the A. femoralis referred to 20 kg body weight [1]: 58.5 mL/min
- HF: heart frequency [1]: 97.5
- HLL: heart capacity left, referred to 20 kg body weight [1]: 0.43 W
- HLR: heart capacity right, referred to 20 kg body weight [1]: 50.8 mW
- HZV: heart minute volume, referred to 20 kg body weight [1]: 2.05 L/min
- SV: beat volume, referred to 20 kg body weight [1]: 21.5 mL
- WAP: pulmonalis resistance, referred to 20 kg body weight [1]: 0.50 U
- WFem: moralis resistance, referred to 20 kg body weight [1]: 0.25 KU
- WTP: total peripheral resistance, referred to 20 kg body weight [1]: 6.62 U
- dp/dt: rate of pressure increase in the left ventricle [1]: 2193.7 mm.Hg/sec
- APdiast: diastolic aorta pressure [2]: 85.9 mm.Hg
- APsyst: systolic aorta pressure [2]: 135.9 mm.Hg
- BFFem: blood flow in the A. femoralis referred to 20 kg body weight [2]: 62.2 mL/min
- HF: heart frequency [2]: 96.2
- HLL: heart capacity left, referred to 20 kg body weight [2]: 0.41 W
- HLR: heart capacity right, referred to 20 kg body weight [2]: 47.3 mW
- HZV: heart minute volume, referred to 20 kg body weight [2]: 1.93 L/min
- SV: beat volume, referred to 20 kg body weight [2]: 20.5 mL
- WAP: pulmonalis resistance, referred to 20 kg body weight [2]: 0.50 U
- WFem: moralis resistance, referred to 20 kg body weight [2]: 0.25 KU
- WTP: total peripheral resistance, referred to 20 kg body weight [2]: 7.24 U
- dp/dt: rate of pressure increase in the left ventricle [2]: 2006.2 mm.Hg/sec
- APdiast: diastolic aorta pressure [3]: 88.5 mm.Hg
- APsyst: systolic aorta pressure [3]: 136.8 mm.Hg
- BFFem: blood flow in the A. femoralis referred to 20 kg body weight [3]: 62.6 mL/min
- HF: heart frequency [3]: 95.5
- HLL: heart capacity left, referred to 20 kg body weight [3]: 0.39 W
- HLR: heart capacity right, referred to 20 kg body weight [3]: 46.0 mW
- HZV: heart minute volume, referred to 20 kg body weight [3]: 1.82 L/min
- LVEDP: end diastolic pressure in the left ventricle [3]: 8.06 mm.Hg
- SV: beat volume, referred to 20 kg body weight [3]: 19.4 mL
- WAP: pulmonalis resistance, referred to 20 kg body weight [3]: 0.46 U
- WFem: moralis resistance, referred to 20 kg body weight [3]: 0.26 KU
- WTP: total peripheral resistance, referred to 20 kg body weight [3]: 7.90 U
- dp/dt: rate of pressure increase in the left ventricle [3]: 1968.7 mm.Hg/sec
- APdiast: diastolic aorta pressure [4]: 92.8 mm.Hg
- APsyst: systolic aorta pressure [4]: 137.8 mm.Hg
- BFFem: blood flow in the A. femoralis referred to 20 kg body weight [4]: 57.4 mL/min
- HF: heart frequency [4]: 92.5
- HLL: heart capacity left, referred to 20 kg body weight [4]: 0.34 W
- HLR: heart capacity right, referred to 20 kg body weight [4]: 36.7 mW
- HZV: heart minute volume, referred to 20 kg body weight [4]: 1.57 L/min
- LVEDP: end diastolic pressure in the left ventricle [4]: 9.47 mm.Hg
- SV: beat volume, referred to 20 kg body weight [4]: 17.4 mL
- WAP: pulmonalis resistance, referred to 20 kg body weight [4]: 0.39 U
- WFem: moralis resistance, referred to 20 kg body weight [4]: 0.29 KU
- WTP: total peripheral resistance, referred to 20 kg body weight [4]: 9.39 U
- dp/dt: rate of pressure increase in the left ventricle [4]: 1743.7 mm.Hg/sec
- APdiast: diastolic aorta pressure [5]: 95.2 mm.Hg
- APsyst: systolic aorta pressure [5]: 139.7 mm.Hg
- BFFem: blood flow in the A. femoralis referred to 20 kg body weight [5]: 49.9 mL/min
- HF: heart frequency [5]: 96.5
- HLL: heart capacity left, referred to 20 kg body weight [5]: 0.35 W
- HLR: heart capacity right, referred to 20 kg body weight [5]: 34.9 mW
- HZV: heart minute volume, referred to 20 kg body weight [5]: 1.57 L/min
- LVEDP: end diastolic pressure in the left ventricle [5]: 9.47 mm.Hg
- SV: beat volume, referred to 20 kg body weight [5]: 17.0 mL
- WAP: pulmonalis resistance, referred to 20 kg body weight [5]: 0.35 U
- WFem: moralis resistance, referred to 20 kg body weight [5]: 0.36 KU
- WTP: total peripheral resistance, referred to 20 kg body weight [5]: 9.56 U
- dp/dt: rate of pressure increase in the left ventricle [5]: 1659.4 mm.Hg/sec
- APdiast: diastolic aorta pressure [6]: 92.8 mm.Hg
- APsyst: systolic aorta pressure [6]: 139.7 mm.Hg
- BFFem: blood flow in the A. femoralis referred to 20 kg body weight [6]: 49.5 mL/min
- HF: heart frequency [6]: 104.5
- HLL: heart capacity left, referred to 20 kg body weight [6]: 0.35 W
- HLR: heart capacity right, referred to 20 kg body weight [6]: 36.9 mW
- HZV: heart minute volume, referred to 20 kg body weight [6]: 1.61 L/min
- LVEDP: end diastolic pressure in the left ventricle [6]: 10.12 mm.Hg
- SV: beat volume, referred to 20 kg body weight [6]: 15.9 mL
- WAP: pulmonalis resistance, referred to 20 kg body weight [6]: 0.37 U
- WFem: moralis resistance, referred to 20 kg body weight [6]: 0.37 KU
- WTP: total peripheral resistance, referred to 20 kg body weight [6]: 8.10 U
- dp/dt: rate of pressure increase in the left ventricle [6]: 1640.6 mm.Hg/sec
- APdiast: diastolic aorta pressure [7]: 90.9 mm.Hg
- APsyst: systolic aorta pressure [7]: 137.8 mm.Hg
- BFFem: blood flow in the A. femoralis referred to 20 kg body weight [7]: 50.9 mL/min
- HF: heart frequency [7]: 114.0
- HLL: heart capacity left, referred to 20 kg body weight [7]: 0.37 W
- HLR: heart capacity right, referred to 20 kg body weight [7]: 38.3 mW
- HZV: heart minute volume, referred to 20 kg body weight [7]: 1.73 L/min
- LVEDP: end diastolic pressure in the left ventricle [7]: 10.5 mm.Hg
- SV: beat volume, referred to 20 kg body weight [7]: 15.5 mL
- WAP: pulmonalis resistance, referred to 20 kg body weight [7]: 0.32 U
- WFem: moralis resistance, referred to 20 kg body weight [7]: 0.32 KU
- WTP: total peripheral resistance, referred to 20 kg body weight [7]: 8.13 U
- dp/dt: rate of pressure increase in the left ventricle [7]: 1621.9 mm.Hg/sec
- APdiast: diastolic aorta pressure [8]: 76.9 mm.Hg
- APsyst: systolic aorta pressure [8]: 152.8 mm.Hg
- BFFem: blood flow in the A. femoralis referred to 20 kg body weight [8]: 51.5 mL/min
- HF: heart frequency [8]: 101.2
- HLL: heart capacity left, referred to 20 kg body weight [8]: 0.50 W
- HLR: heart capacity right, referred to 20 kg body weight [8]: 67.1 mW
- HZV: heart minute volume, referred to 20 kg body weight [8]: 2.35 L/min
- LVEDP: end diastolic pressure in the left ventricle [8]: 7.50 mm.Hg
- PAP: average pressure in the A. pulmonalis [8]: 15.59 mm.Hg
- SV: beat volume, referred to 20 kg body weight [8]: 23.4 mL
- WAP: pulmonalis resistance, referred to 20 kg body weight [8]: 0.46 U
- WFem: moralis resistance, referred to 20 kg body weight [8]: 0.29 KU
- WTP: total peripheral resistance, referred to 20 kg body weight [8]: 5.78 U
- dp/dt: rate of pressure increase in the left ventricle [8]: 1903.1 mm.Hg/sec
- PRV: pressure in the right atrium (dog, in vivo, iv): 3.09
- HF: heart frequency (iv, 0.5 mg/kg): 103.7
- dp/dt: rate of pressure increase in the left ventricle (iv, 0.5 mg/kg): 2306.2 mm.Hg/sec
